PubChem BioAssay (NCI)
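48-hour exposure; five concentrations; linearly interpolated endpoints. GI50 is the concentration that inhibits growth by half. TGI: total growth inhibition.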

Key:
Assay in all cases: inhibition of tumour cell growth, NCI panel, 48 h
CCRF-CEM leukemia = system: CCRF-CEM leukemia
HS 578T breast = system: HS 578T breast
K-562 leukemia = system: K-562 leukemia
LOX IMVI melanoma = system: LOX IMVI melanoma
MDA-MB-231 breast = system: MDA-MB-231 breast
NCI-H226 lung = system: NCI-H226 lung
SF-295 CNS = system: SF-295 CNS
U251 CNS = system: U251 CNS
UACC-257 melanoma = system: UACC-257 melanoma
SNB-75 CNS = system: SNB-75 CNS

SMILES	TGI (CCRF-CEM leukemia) [µM]	TGI (HS 578T breast) [µM]	TGI (K-562 leukemia) [µM]	TGI (LOX IMVI melanoma) [µM]	TGI (MDA-MB-231 breast) [µM]	TGI (NCI-H226 lung) [µM]	TGI (SF-295 CNS) [µM]	TGI (U251 CNS) [µM]	TGI (UACC-257 melanoma) [µM]	TGI (SNB-75 CNS) [µM]	GI50 (CCRF-CEM leukemia) [µM]	GI50 (HS 578T breast) [µM]	GI50 (LOX IMVI melanoma) [µM]	GI50 (MDA-MB-231 breast) [µM]	GI50 (NCI-H226 lung) [µM]	GI50 (SF-295 CNS) [µM]	GI50 (SNB-75 CNS) [µM]	GI50 (U251 CNS) [µM]	GI50 (UACC-257 melanoma) [µM]	GI50 (K-562 leukemia) [µM]
COc1cc(OC)c(/C=C\c2ccnc3ccccc23)c(OC)c1	5.75	12.1	2.24	13.6	15.4	16.8	8.35	15.2	17.8											
CC(=O)c1ccc(OCC(O)CO)cc1 (stereo not drawn)	> 100		> 100			> 100	> 100	> 100	> 100	> 100										
CCCCCCCCN(CCCCCCCC)CCCCCCNc1cc(OC)cc2cccnc12	> 100	29.7		13.5	15.9	33.7	29.3	27	5.62	29	11.4	11	3.79	4.75	17	14	15.3	11.9	2.2	
COc1cc2nc(SCC(=O)Nc3cc(OC)c(OC)c(OC)c3)n(Cc3ccccc3)c(=O)c2cc1OC	> 100	9.45	> 100	> 100	37.8			11.2	> 100	3.38	> 100	2.46	4.71	3.73			1.57	3.18	3.55	> 100
CCN1C(=O)N(CC)C2Nn3c(s/c(=C\c4ccccc4Br)c3=O)=NC21 (stereo not drawn)	> 100		> 100	30.6	8.62	> 100	7.75	19.4	> 100	8.3	1.32		2.43	1.89	6.31	0.691	0.797	0.676	12.9	0.515
CC(=O)Nc1cc(N(CCOS(C)(=O)=O)CCOS(C)(=O)=O)ccc1N=O	> 100		> 100			> 100	> 100	> 100	> 100	> 100										
Cc1ccc2ncnc(N(CC(C)C)CC(C)C)c2c1	41.7	44.3	21.7	34.4		34.8	32.7	33.3			6.55	17.4	16.2		15.2	16.7		16.5		3.69
COC(=O)C(CC(C)C)NC(=O)NC12CC3CC(CC(F)(C3)C1)C2 (stereo not drawn)	> 100		> 100	> 100				> 100	> 100	> 100										
CCOC(=O)CSC(=O)NCCCl	> 100		> 100			> 100	> 100	> 100	> 100	> 100	7.22									29
COC(=O)/C=C(\C(=O)OC)c1c2c3c(cc(OC)c(OC)c3c3ccccc13)CCN2C	85.4		90.8	> 100		> 100	> 100	> 100	89.7	> 100										
CN(C)c1ccc(N=C2C=CC(=[N+](C)C)C=C2)cc1		29.1		22.1	> 100	> 100	22.1	15.4	24.8	21.2		3.28	3.86	6.41	17	4.62	5.86	3.65	7.12	
COC(=O)/C(=N\Nc1nc(=S)[nH]n1N)C(C#N)c1ccccc1 (stereo not drawn)	> 100		> 100	> 100		> 100		> 100	> 100	> 100										
CCCCCCCCCCCCCC(=O)OCC1OC(n2cc(F)c(=O)[nH]c2=O)C(NC(=O)OCc2ccccc2)C(OC(=O)CCCCCCCCCCCCC)C1O (stereo not drawn)	> 100		> 100	> 100		> 100	> 100	> 100	> 100	> 100										
CC(/C(=N\Nc1ccccc1)c1ccc(O)cc1)C1C(=O)Oc2ccccc21 (stereo not drawn)	> 100		> 100	> 100			> 100	> 100	> 100	> 100										
COC(=O)C(C(=O)C(=O)Nc1nc(=S)[nH][nH]1)c1csc(-n2nc(-c3ccccc3)cc2-c2ccccc2)n1 (stereo not drawn)	> 100		> 100	> 100		> 100		> 100	> 100	78.5										
CCOC(=O)C1C2CCC(C2)C1(CCl)C(=O)OCC (stereo not drawn)	> 100		> 100	> 100		> 100	> 100	> 100	> 100											
O=C1c2ccccc2C(=O)N1CCN(CCN1C(=O)c2ccccc2C1=O)Cn1cccn1	> 100		> 100	> 100			> 100	> 100	> 100	> 100										
CC(=O)OC1CCCn2c1nc1c2C(=O)C(C)=C(N2CC2)C1=O (stereo not drawn)	59		> 35.2	1.01		0.944	0.665	0.533	0.587	0.808										
O=C(CN(/C=C/C(=O)C(F)(F)F)c1ccc(Cl)cc1)c1ccccc1	33.5	68.1	> 100	22.3	33.8		41.4	30.8	34.9	41.1	8.8	24.3	5.26	15.8		12.1	12.9	15.8	14.5	2.8
CNCc1cc(OC)ccc1-c1ccc(OC)c(OC)c1OC	> 100		> 100	> 100		> 100	> 100	> 100	> 100	> 96.7										

SMILES	TGI (CCRF-CEM leukemia) [µM]	TGI (HS 578T breast) [µM]	TGI (K-562 leukemia) [µM]	TGI (LOX IMVI melanoma) [µM]	TGI (MDA-MB-231 breast) [µM]	TGI (NCI-H226 lung) [µM]	TGI (SF-295 CNS) [µM]	TGI (U251 CNS) [µM]	TGI (UACC-257 melanoma) [µM]	TGI (SNB-75 CNS) [µM]	GI50 (CCRF-CEM leukemia) [µM]	GI50 (HS 578T breast) [µM]	GI50 (LOX IMVI melanoma) [µM]	GI50 (MDA-MB-231 breast) [µM]	GI50 (NCI-H226 lung) [µM]	GI50 (SF-295 CNS) [µM]	GI50 (SNB-75 CNS) [µM]	GI50 (U251 CNS) [µM]	GI50 (UACC-257 melanoma) [µM]	GI50 (K-562 leukemia) [µM]
COc1ccc(C(=O)c2cc(OC)c(OC)c(OC)c2)cc1/C=C/C(=O)c1ccc(OC)c(OC)c1	13.3	> 100	> 100	4.75	> 100		> 100		> 100	> 100	0.465	11.1	0.559	0.659		5.26	3.86		3.19	0.4
CC1SC2=NC3=C(c4ccccc4C3=O)C(c3ccc(Cl)cc3)N2C1=O (stereo not drawn)	> 100		> 100			> 100	> 100	> 100	> 100	> 100										
CC1=NOC(=O)/C1=C/c1cccc2ccccc12	> 100		> 100	> 100		> 100	> 100	> 100	> 100	> 100										
O=C1CCC2CC(C(=O)c3ccccc3)CCC2CN1 (stereo not drawn) (tested in a mixture with another compound)	> 100		> 100			> 100	> 100	> 100	> 100	> 100										
CCCCCCCCCCCCCC1=NCCN1CCO	> 100	6.54	> 100		8.28	41.2	6.18	4.95	36.9	8.16	10.5	2.66		3.04	17.5	2.19	2.3	2.1	12.6	3.04
NNC(=O)CNC(=O)c1ccc(Cl)cc1Cl	> 100		> 100			> 100	> 100	> 100	> 100	> 100										
CC1C[C@H](C)CC(C(O)CC2CC(=O)N(Cc3ccccc3)C(=O)C2)C1O (stereo partly drawn)	> 100		> 100	> 100		> 100	> 100	> 100	> 100	> 100										
O=C(c1ccccc1)[C@H]1Nc2ccc(Cl)cc2C2c3ccccc3CC21 (stereo partly drawn)			> 100	> 100		> 100	67.5	> 100	85.9	> 100										
CC1(C)C(O)C[C@@H](O)[C@@]2(C)C1CC[C@]1(C)C2C[C@@H](O)[C@@H]2C([C@@]3(C)CC[C@@H](C(C)(C)O)O3)CCC21C (stereo partly drawn)	> 66.1		> 100	23.2		34.7	30.2	25.5	> 54.1	29.7										
C=C(C)[C@@H]1CC[C@]2(C(=O)O)CC[C@]3(C)[C@H](CC[C@@H]4[C@@]5(C)C[C@@H](CC#Cc6ccc(C(F)(F)F)cc6)[C@H](O)C(C)(C)[C@@H]5CC[C@]43C)[C@@H]12	> 100	> 100	> 100			> 100		4.75		5.14	2.98	3.88			2.91		1.73	1.98		1.93
COc1ccc(C2CC(c3cc(C)ccc3O)=NC(N)=N2)cc1 (stereo not drawn)	> 100		> 100	> 100		> 100	> 100	> 100	> 100	> 100										
Cc1cc2c(cc1C)[n+](=O)c(C(=O)C/C(=N/OCCCc1ccccc1)C(=O)Nc1cc(Cl)ccc1Cl)c(C)n2[O-]	> 100		> 100	> 100		> 100	> 100	> 100	> 100	> 100										
Nc1nc2c(s1)CCc1c-2c(Br)n(Cc2ccccc2)c1Br	11.9	93.8	19.3	19.7	48.7		33.4	28.2	25.6	33.1	0.534	25.7	3.98	14.1		16.6	14.5	14	12.1	3.55
Oc1ccc(O)c(-c2cn3ccsc3n2)c1	4.23	68.7	26.1	21.3	33.7	33.6	51.2	33.7	50.3		1.59	30.4	5.68	11.7	9.11	13.6		15.8	24.3	6.93
Cc1ccc(S(=O)(=O)N2CCSCCN(S(=O)(=O)c3ccc(C)cc3)CCN(S(=O)(=O)c3ccc(C)cc3)CC2)cc1	> 100	> 100	> 100		59.5	> 100	> 100	90.1												
N#Cc1c2c(c(N=P(c3ccccc3)(c3ccccc3)c3ccccc3)n3c1nc1ccccc13)CCCC2	57.7		38.2	76.3		22.4	> 100	77.9	57.8	69.7										
CC1CC(=O)Nc2ccccc2N1C(=O)CN1CCC(CCCCN(C)C)CC1 (stereo not drawn)	> 100		> 100	> 100		> 100	> 100	> 100	> 100	> 100										
CC[P+](C)(C)c1ccccc1	> 100		> 100	> 100			> 100	> 100	> 100	> 100										
CCCCCCCCOCC(O)COC(=O)CCCCCCC (stereo not drawn)	35.7		> 100	> 100		> 100	> 100	> 100	> 100											
NC(N)=N/N=C/c1c(-c2cc(Cl)sc2Cl)nc2sccn12	1.68	2.77	3.14		1.75	18.9	6.15	1.56	17.6		0.807	0.89		0.751	7.89	1.62		0.799	8.6	1.32
